Test results from patent publication US9321742B2, “N1-cyclic amine-N5-substituted biguanide derivatives, methods of preparing the same and pharmaceutical composition comprising the same” (IMMUNOMET THERAPEUTICS INC., priority 2011, dated 2016).

Legend:
HCT116 cells = assay: Measurement of effect of inhibiting cancer cell proliferation (MTT); format: cell-based; conditions: Homo sapiens; for inhibition at 100 µM: HCT-116, 100 uM, read-out: Cell Growth Inhibition (%) at 100 uM; for GI50: HCT-116, 48 hours
Description: HCT116 cells derived from human colorectal cancer (commercially available from the Korean Cell Line Bank) were used, and the effect of inhibiting cancer cell proliferation of the biguanide derivative was confirmed by measuring the concentration value (cell growth inhibition concentration, GIC50) at which cell growth was inhibited by 50% using a 3-(4,5-dimethylthiazol-2-yl)-2,5-[…] bromide (MTT) reagent.
First, HCT116 cells were put on a 96-well plate and cultured in a DMEM medium containing 10% fetal bovine serum for 16 hours so that the cellcount in each well was approximately 5,000. Subsequently, to obtain the GIC50 value of each compound, culture media were treated with 100 μM, 25 μM, 6.25 μM, 1.56 μM or 0.39 μM of the compound, and then cultured for 48 hours. At this time, some of the compounds were treated with 200 μM instead of 100 μM. Metformin hydrochloride was used as the control, and the culture media were treated with 25, 12.5, 2.5, 0.5, 0.1 mM metformin hydrochloride, and then tested in the same manner as described in the derivatives synthesized in the examples. In order to determine whether the cells survived after treatment with the compound, MTT was added to the culture media which were then cultured for another 3 hours. Formed formazane crystals were dissolved using dimethyl sulfoxide (DMSO), and the absorbance of the resulting solution was measured at 560 nm. After the 48-hours culture, the ratio of the cell count cultured on a well plate not treated with the compound to the living cell count on a well plate treated with the compounds synthesized in the examples was indicated as cell viability (%) according to each treated concentration. A cell viability curve graph was plotted and the concentration (GIC50) value of the compound at which the growth was inhibited by 50% was calculated to confirm the effect of inhibition of cancer cell proliferation. Also, the cell growth viability (%) when the concentration of the treated biguanide derivative and the metformin hydrochloride as the control were 100 uM was shown.

AMPKα = assay: Measurement of AMPK-activation effect (AMPKα Thr172 phosphorylation immunoassay in MCF7 cells); format: cell-based, human; conditions: 24 hours; for AMPK activation effect 10 uM (%) / AMPK activation effect 50 uM (%): relative to untreated cells
Experimental: MCF7 cells derived from human breast cancer cells (commercially available from the Korean Cell Line Bank) were used, and the AMPK (5′-AMP-activated protein kinase alpha)-activation effect of the biguanide derivative was confirmed using an AMPKα immunoassay kit (Invitrogen, Catalog No. KH00651).
MCF7 cells were cultured in a DMEM medium supplemented with 10% fetal bovine serum. Thereafter, the cultured MCF7 cells were put into a 6-well plate with approximately 5×10^5 cells per well and cultured in an incubator supplied with 5% CO2. Culture media were treated with the derivatives synthesized in the examples at contents of 5, 10 and 50 μM, and then cultured for 24 hours. Metformin hydrochloride was used as the control, and the culture media were treated with 0.05, 0.5, 1, 2, 5 and 10 mM metformin hydrochloride, and then tested in the same manner as described in the derivatives synthesized in the examples. Subsequently, the cells were lysed according to a method presented in the operation manual of the AMPKα immunoassay kit, and 20 μg of a cell lysate was then yielded through protein assay. Thereafter, the AMPK activation effect was obtained by determining the degree of phosphorylation of 172nd threonine residue (Thr172) of the AMPKα from the cell lysate according to the method presented in the operation manual of the AMPKα immunoassay kit. […] A curve graph showing AMPK activation according to the concentration of the treated compounds was plotted based on the obtained AMPKα activation results, the concentration (activation concentration 150, AC150) value of the compound whose AMPK activation reached 150% was calculated using a GraphPad Prism 5.0 program, and the degrees of AMPK activation were obtained when concentrations of the treated biguanide derivatives were 10 μM and 50 μM and the metformin hydrochloride was 50 μM.

Structure (SMILES) | melting point [°C] | GI50 (HCT116 cells) [µM] | inhibition at 100 µM (HCT116 cells; 48 hours) [%] | AMPK activation effect 10 uM (%) (AMPKα) | AMPK activation effect 50 uM (%) (AMPKα) | AC150 (concentration at which AMPK activation reached 150%) (AMPKα) [µM] | inhibition at 200 µM (HCT116 cells; HCT-116, 200 uM, 48 hours, read-out: Cell Growth Inhibition (%) at 200 uM) [%]
Cl.N=C(NCc1ccco1)NC(=N)N1CCCCC1 [Example 23, N1-piperidine-N5-(furan-2-ylmethyl)biguanide hydrochloride] | 251 to 252 | > 100 | 39.5 | 112 | 298 | 15.8 | 
Cl.N=C(NCc1cccs1)NC(=N)N1CCCCC1 [Example 24, N1-piperidine-N5-(thiophene-2-ylmethyl)biguanide hydrochloride] | 220 to 221 | 93.2 | 51.7 | 64 | 112 | >50 | 
Cl.N=C(NCc1cccc(C(F)(F)F)c1)NC(=N)N1CCCCC1 [Example 7, N1-piperidine-N5-(3-trifluoromethyl)benzyl biguanide hydrochloride] | 259 to 260 | 17.2 | 97.4 | 582 | 677 | 1.0 | 
Cl.N=C(NCc1ccc(OC(F)(F)F)c(Cl)c1)NC(=N)N1CCCCC1 [Example 50, N1-piperidine-N5-(3-chloro-4-trifluoromethoxy)benzyl biguanide hydrochloride] | 240 to 241 | 5.7 | 97 | 259 |  | 8.8 | 
Cl.N=C(NCc1ccc(Br)cc1)NC(=N)N1CCCC1 [Example 34, N1-pyrrolidine-N5-(4-bromo)benzyl biguanide hydrochloride] | 267 to 268 | 92.8 | 97.3 | 467 | 639 | 42.4 | 
Cl.N=C(NCc1ccc(C(F)(F)F)c(F)c1)NC(=N)N1CCCCC1 [Example 46, N1-piperidine-N5-(3-fluoro-4-trifluoromethyl)benzyl biguanide hydrochloride] | 264 to 266 | 21.3 | 101 | 331 | 389 | 1.1 | 
Cl.N=C(NC(=N)N1CCCCC1)NC1CCCC1 [Example 14, N1-piperidine-N5-cyclopentyl biguanide hydrochloride] | 154 to 155 | > 100 | 30.4 | 114 | 157 | 38.3 | 
Cl.N=C(NCc1ccc(F)c(OC(F)(F)F)c1)NC(=N)N1CCCCC1 [Example 48, N1-piperidine-N5-(4-fluoro-3-trifluoromethoxy)benzyl biguanide hydrochloride] | 233 to 235 | 13.4 | 96.4 | 244 |  | 18.2 | 
Cl.N=C(NCc1ccc(F)c(C(F)(F)F)c1)NC(=N)N1CCCCC1 [Example 44, N1-piperidine-N5-(4-fluoro-3-trifluoromethyl)benzyl biguanide hydrochloride] | 232 to 235 | 15.2 | 32.6 | 180 | 383 | 10.3 | 
CCCCNC(=N)NC(=N)N1CCCCC1.Cl [Example 11, N1-piperidine-N5-butyl biguanide hydrochloride] | 113 to 114 | > 100 | 42.7 |  | 130 | >50 | 
Cl.N=C(NCc1ccc(OC(F)(F)F)c(F)c1)NC(=N)N1CCCCC1 [Example 49, N1-piperidine-N5-(3-fluoro-4-trifluoromethoxy)benzyl biguanide hydrochloride] | 266 to 268 | 9.2 | 97 | 158 | 147 | 0.8 | 
Cl.N=C(NCc1ccc(C(F)(F)F)cc1)NC(=N)N1CCCC1 [Example 38, N1-pyrrolidine-N5-(4-trifluoromethyl)benzyl biguanide hydrochloride] | 268 to 270 | 32.4 | 61.6 | 116 | 213 | 1.4 | 
Cl.N=C(NC(=N)N1CCCCCC1)NC1CCCCCC1 [Example 19, N1-azepane-N5-cycloheptyl biguanide hydrochloride] | 237 to 238 | 35.7 | 94.7 | 213 | 325 | 5.6 | 

Continued, in another order:

melting point [°C] | GI50 (HCT116 cells) [µM] | Structure (SMILES) | inhibition at 100 µM (HCT116 cells; 48 hours) [%] | AMPK activation effect 10 uM (%) (AMPKα) | AMPK activation effect 50 uM (%) (AMPKα) | AC150 (concentration at which AMPK activation reached 150%) (AMPKα) [µM] | inhibition at 200 µM (HCT116 cells; HCT-116, 200 uM, 48 hours, read-out: Cell Growth Inhibition (%) at 200 uM) [%]
176 to 178 |  | Cl.N=C(NCCc1cccs1)NC(=N)N1CCCCC1 [Example 56, N1-piperidine-N5-(thiophene-2-yl)ethyl biguanide hydrochloride] | 97.6 | 612 |  | 9.0 | 
242 to 244 | 10.3 | Cl.N=C(NCc1ccc(Cl)c(Cl)c1)NC(=N)N1CCCCC1 [Example 55, N1-piperidine-N5-(3,4-dichloro)benzyl biguanide hydrochloride] | 97.7 | 443 | 830 | 0.9 | 
230 to 232 | 76.4 | Cl.N=C(NCc1ccc(F)c(F)c1)NC(=N)N1CCCCC1 [Example 52, N1-piperidine-N5-(3,4-difluoro)benzyl biguanide hydrochloride] | 46.5 | 327 | 703 | 3.8 | 
211 to 212 | 22.4 | Cl.N=C(NCCc1ccc(F)cc1)NC(=N)N1CCCCCC1 [Example 60, N1-azepane-N5-((4-fluoro)phenethyl)biguanide hydrochloride] | 73.7 | 744 | 721 | 0.7 | 
211 to 213 | 21.9 | Cl.N=C(NCCc1ccccc1)NC(=N)N1CCCCCC1 [Example 59, N1-azepane-N5-(phenethyl)biguanide hydrochloride] | 56.6 | 194 | 373 | 0.7 | 
213 to 215 | > 200 | Cl.N=C(NCCc1ccccc1)NC(=N)N1CCCC1 [Example 57, N1-pyrrolidine-N5-(phenethyl)biguanide hydrochloride] |  |  | 391 | 8.1 | 23.2
